Laboratory results as given in the NIST ThermoML archive (doi:10.1021/je900697w).
Numbers after ± are expanded uncertainties.

How the values were obtained:
[1] = for surface tension liquid-gas: Ring tensiometer; for mass density: 101.33 kPa, Liquid
[2] = xn = mol fraction of the nth substance listed; details: for surface tension liquid-gas: Ring tensiometer; for mass density: 101 kPa, Liquid, Vibrating tube method
[3] = 101 kPa, Liquid mixture 1, Ring tensiometer

CCCCCC[n+]1ccn(C)c1.O=S(=O)([N-]S(=O)(=O)C(F)(F)F)C(F)(F)F
[1]
Details | mass density [kg/m3] | surface tension liquid-gas [mN/m]
283.1 K | 1385.4 ± 2.6 | 31.2 ± 0.5
298.15 K | 1370.7 ± 2.6 | 30.8 ± 0.6
323.15 K | 1348 ± 5 | 28.9 ± 0.9
348.15 K | 1324 ± 5 | 27.6 ± 0.6

CCCCCC[n+]1ccn(C)c1.O=S(=O)([N-]S(=O)(=O)C(F)(F)F)C(F)(F)F + C=CCCCCCC
[2], x2 = 0
Details | mass density [kg/m3] | surface tension liquid-gas [mN/m]
283.1 K | 1385.4 ± 1 | 31.2 ± 0.5
298.15 K | 1370.7 ± 1.3 | 30.8 ± 0.6
323.15 K | 1348 ± 4 | 28.9 ± 0.9
348.15 K | 1324 ± 4 | 27.6 ± 0.6

C=CCCCCCC [oct-1-ene]
[1]
Details | surface tension liquid-gas [mN/m]
283.1 K | 22.5 ± 0.4
298.15 K | 21.2 ± 0.4
323.15 K | 18.5 ± 0.4
348.15 K | 15.7 ± 0.4

[1], Vibrating tube method
Details | mass density [kg/m3]
283.1 K | 723.5 ± 1.3
298.15 K | 711.2 ± 1.3
323.15 K | 690 ± 20
348.15 K | 668 ± 24

C=CCCCCCC [oct-1-ene] + CCCCCC[n+]1ccn(C)c1.O=S(=O)([N-]S(=O)(=O)C(F)(F)F)C(F)(F)F
[3]
Details | interfacial tension [mN/m]
283.1 K | 13.3 ± 2.6
298.15 K | 13 ± 2.6
323.15 K | 9.7 ± 2.6
348.15 K | 4.4 ± 2.6

[2]
Details | mass density [kg/m3] | surface tension liquid-gas [mN/m]
283.1 K, x1 = 0.05 | 1372.1 ± 1.7 | 30.9 ± 0.5
283.1 K, x1 = 0.1 | 1356 ± 10 | 29.8 ± 0.5
283.1 K, x1 = 0.139 | 1340 ± 20 | –
283.1 K, x1 = 0.15 | – | 27.8 ± 0.4
283.1 K, x1 = 0.154 | 1340 ± 20 | –
283.1 K, x1 = 0.16 | – | 27.7 ± 0.5
283.1 K, x1 = 1 | – | 22.5 ± 0.4
298.15 K, x1 = 0.05 | 1358 ± 12 | 30.3 ± 0.5
298.15 K, x1 = 0.1 | 1342 ± 4 | 29.4 ± 0.6
298.15 K, x1 = 0.139 | 1328 ± 14 | –
298.15 K, x1 = 0.15 | – | 27.4 ± 0.4
298.15 K, x1 = 0.154 | 1326 ± 6 | –
298.15 K, x1 = 0.19 | – | 27 ± 0.9
298.15 K, x1 = 1 | – | 21.2 ± 0.4
323.15 K, x1 = 0.05 | 1336 ± 4 | 28.8 ± 1.3
323.15 K, x1 = 0.1 | 1319 ± 12 | 28.7 ± 1.1
323.15 K, x1 = 0.139 | 1306 ± 12 | –
323.15 K, x1 = 0.15 | – | 26.6 ± 0.6
323.15 K, x1 = 0.154 | 1303 ± 4 | –
323.15 K, x1 = 0.23 | – | 25.5 ± 0.9
323.15 K, x1 = 1 | – | 18.5 ± 0.4
348.15 K, x1 = 0.05 | 1313 ± 10 | 27.4 ± 0.7
348.15 K, x1 = 0.1 | 1300 ± 20 | 27.2 ± 1.3
348.15 K, x1 = 0.139 | 1282 ± 12 | –
348.15 K, x1 = 0.15 | – | 26.3 ± 1.3
348.15 K, x1 = 0.154 | 1279 ± 22 | –
348.15 K, x1 = 0.28 | – | 25.3 ± 0.9
348.15 K, x1 = 1 | – | 15.7 ± 0.4
